In one data set the target is T1, rat PXR (Rattus norvegicus, UniProt Q9R1A7).
T1 sequence (Q9R1A7 1-431): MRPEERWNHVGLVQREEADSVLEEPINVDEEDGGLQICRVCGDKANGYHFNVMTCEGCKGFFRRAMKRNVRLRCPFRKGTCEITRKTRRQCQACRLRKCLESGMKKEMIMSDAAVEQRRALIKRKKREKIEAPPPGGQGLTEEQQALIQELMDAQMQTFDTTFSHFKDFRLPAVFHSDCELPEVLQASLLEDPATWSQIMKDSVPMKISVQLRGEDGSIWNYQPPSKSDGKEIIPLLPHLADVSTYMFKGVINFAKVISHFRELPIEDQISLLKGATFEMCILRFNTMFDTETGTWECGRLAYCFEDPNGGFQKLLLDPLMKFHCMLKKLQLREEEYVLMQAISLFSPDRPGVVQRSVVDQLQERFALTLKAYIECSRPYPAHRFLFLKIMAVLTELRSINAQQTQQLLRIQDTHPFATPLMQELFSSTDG
Put plainly: Activation of rat PXR, cotransfection with CYP3A4-DP-Luc in HepG2. The following applies: 24 h.

In the next data set the target is carboxylesterase HCE2 (Homo sapiens, UniProt O00748). In words: Hydrolysis of pyrethroids by recombinant HCE2. The data set is classed as in vitro ADME. The conditions noted are these: for preference for hydrolysis by HCE2 over HCE1: recombinant HCE2 vs HCE1 lysates, Tris-HCl pH 7.4.
Sequence of carboxylesterase HCE2 (O00748 27-559): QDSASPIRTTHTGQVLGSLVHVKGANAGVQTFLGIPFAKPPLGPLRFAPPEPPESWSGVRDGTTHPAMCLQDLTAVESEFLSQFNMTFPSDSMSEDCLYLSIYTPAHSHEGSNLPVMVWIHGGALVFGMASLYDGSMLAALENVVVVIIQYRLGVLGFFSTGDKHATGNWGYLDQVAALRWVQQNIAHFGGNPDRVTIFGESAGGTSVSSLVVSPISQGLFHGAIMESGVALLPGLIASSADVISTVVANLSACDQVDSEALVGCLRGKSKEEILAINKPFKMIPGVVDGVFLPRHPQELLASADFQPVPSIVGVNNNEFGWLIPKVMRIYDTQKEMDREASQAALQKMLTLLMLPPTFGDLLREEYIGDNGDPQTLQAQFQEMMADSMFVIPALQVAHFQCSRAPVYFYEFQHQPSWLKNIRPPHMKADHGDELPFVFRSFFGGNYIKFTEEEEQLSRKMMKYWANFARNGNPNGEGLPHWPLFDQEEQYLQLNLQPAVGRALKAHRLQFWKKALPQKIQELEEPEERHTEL
The subject of data set [1] is CYP3A4. In words: CYP3A4 expression in human primary hepatocytes. The conditions noted are these: 10 µM, 24 h; for induction of CYP3A4 mRNA: four donors.
In data set [2] the test system is CYP3A4. In words: Metabolism of pyrethroids by recombinant CYP3A4. The following applies: Supersomes 5 pmol P450, pyrethroid 50 µM, NRS, 37°C.
The next data set deals with T2, carboxylesterase HCE1 (Homo sapiens, UniProt P23141).
T2 sequence (P23141 18-567): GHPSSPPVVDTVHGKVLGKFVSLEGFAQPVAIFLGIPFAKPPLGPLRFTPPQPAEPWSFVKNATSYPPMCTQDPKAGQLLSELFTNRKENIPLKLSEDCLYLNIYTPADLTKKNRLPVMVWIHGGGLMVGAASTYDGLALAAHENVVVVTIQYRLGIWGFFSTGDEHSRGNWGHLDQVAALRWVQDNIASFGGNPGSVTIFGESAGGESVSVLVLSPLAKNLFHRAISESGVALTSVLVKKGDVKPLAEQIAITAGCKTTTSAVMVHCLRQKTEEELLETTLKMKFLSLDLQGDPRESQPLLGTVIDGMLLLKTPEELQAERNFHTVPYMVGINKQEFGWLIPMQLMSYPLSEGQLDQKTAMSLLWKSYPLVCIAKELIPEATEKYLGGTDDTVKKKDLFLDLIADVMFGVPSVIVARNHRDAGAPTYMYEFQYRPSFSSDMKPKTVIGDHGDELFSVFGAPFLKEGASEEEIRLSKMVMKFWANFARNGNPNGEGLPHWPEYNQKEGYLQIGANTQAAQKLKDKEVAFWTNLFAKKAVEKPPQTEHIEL
In words: Hydrolysis of pyrethroids by recombinant HCE1. It is filed as in vitro ADME. The following applies: for preference for hydrolysis by HCE1 over HCE2 (words): recombinant HCE1 vs HCE2 lysates, Tris-HCl pH 7.4.

The conditions of data set [3]: for hydrolysis by pooled human liver microsomes (rate group / extent, in words): 50 µg protein, pyrethroid 200 µM mixed with equal volume, Tris-HCl pH 7.4, 37°C. On the technique in general: Microsomes from liver hold many membrane-bound enzymes, among them those of drug oxidation.
The target of data set [4] is T3, human PXR (Homo sapiens, UniProt O75469).
T3 sequence (O75469 1-434): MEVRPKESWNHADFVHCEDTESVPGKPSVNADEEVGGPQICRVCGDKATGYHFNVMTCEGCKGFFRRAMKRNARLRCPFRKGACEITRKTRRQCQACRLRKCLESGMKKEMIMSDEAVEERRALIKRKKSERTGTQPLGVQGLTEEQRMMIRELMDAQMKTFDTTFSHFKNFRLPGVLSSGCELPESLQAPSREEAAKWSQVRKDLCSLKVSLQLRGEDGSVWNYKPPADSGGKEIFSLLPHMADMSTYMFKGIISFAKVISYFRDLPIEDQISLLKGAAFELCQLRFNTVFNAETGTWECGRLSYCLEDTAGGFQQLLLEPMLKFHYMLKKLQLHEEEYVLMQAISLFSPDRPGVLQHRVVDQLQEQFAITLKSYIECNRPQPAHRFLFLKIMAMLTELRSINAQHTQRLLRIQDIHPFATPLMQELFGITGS
Put plainly: Activation of human PXR in stable line hPXR-HRE. The following applies: 10 µM, 24 h, ratio over DMSO.

Data set [5] is classed as in vitro ADME, human. The following applies: ten individual microsomal samples, 100 µM bioallethrin, 30 min.
Another data set concerns rats or mice. The following applies: in vivo, po; cited from earlier work.
Data set [6] deals with CYP3A4. In words: CYP3A4 mRNA in cell lines HepG2, Hop92 and LS180. It is filed as cell-based, human. The following applies: 24 h.
Another data set has as its target T4, human PXR variant L412I (Homo sapiens, UniProt O75469, L412I).
T4 sequence (O75469 1-434 L412I): T3 sequence (O75469 1-434) with L412I
The following applies: HepG2 cotransfection, 10 µM, 24 h.

In another data set the target is T5, human PXR variant S208F (Homo sapiens, UniProt O75469, S208F).
T5 sequence (O75469 1-434 S208F): T3 sequence (O75469 1-434) with S208F
The conditions noted are these: HepG2 cotransfection, 10 µM, 24 h; words: compared with wild-type PXR.

The target of data set [7] is T3, human PXR. In words: Activation of human PXR in hPXR-HRE cells transfected with HCE1, HCE2 or vector.

Positions count from the first letter of the chain named. Entries after “also recorded” stand apart in the source; their conditions may differ.

For `Cc1c(COC(=O)[C@@H]2[C@H](/C=C(\Cl)C(F)(F)F)C2(C)C)cccc1-c1ccccc1` (racemic) [Bifenthrin], the “activation of rat PXR” value at rat PXR was “efficaciously activated rat PXR”. For the same compound, on carboxylesterase HCE2, the “preference for hydrolysis by HCE2 over HCE1” value (“preference … over HCE1” below) is “HCE2 preferably hydrolyzed”. In addition, in the data set on CYP3A4 [1], the “induction of CYP3A4 mRNA” value is recorded as at least 2.5 fold.
Consider `C=CCC1=C(C)C(OC(=O)[C@@H]2[C@@H](C=C(C)C)C2(C)C)CC1=O` (stereo partly drawn) [Bioallethrin], for which, in the data set with CYP3A4 [2], the “extent of metabolism by CYP3A4” value is recorded as “greatest extent”. Also, the “activation of rat PXR” value at rat PXR came to 2.0 fold. In addition, the “preference for hydrolysis by HCE1 over HCE2 (words)” value (“preference … over HCE2 (words)” below) on carboxylesterase HCE1 is “HCE1 preferably hydrolyzed”. For the same compound, the “hydrolysis by pooled human liver microsomes (rate group / extent, in words)” value (“hydrolysis … (rate group / extent, in words)” below) in data set [3] is given as “rapidly hydrolyzed”. Also, the “hydrolysis rate relative to bifenthrin” value in [3] (pooled human liver microsomes) was 8 times. Besides, the “activation of human PXR” value on human PXR [4] is listed as “activated PXR with less potency”. For the same compound, in data set [5], the “variation of overall hydrolysis among individual samples” value is ~ 2 fold. In addition, the “induction of CYP3A4 mRNA” value in the data set on CYP3A4 [1] is on record as “relatively weaker inducers; also recorded: least induction”.
As for `CC(C)=C[C@@H]1[C@@H](C(=O)OCc2coc(Cc3ccccc3)c2)C1(C)C` [Bioresmethrin], the “hydrolysis by HCE1 relative to esfenvalerate” value on carboxylesterase HCE1 (recombinant HCE1) stood at 7 times. Moreover, the results for the “preference … over HCE2 (words)” value on carboxylesterase HCE1 and on carboxylesterase HCE1 (listed as bioresmethrin) were “hydrolyzed overwhelmingly by HCE1” and “HCE1 preferably hydrolyzed”, respectively. Moreover, the “hydrolysis … (rate group / extent, in words)” value in data set [3] is on record as “highest extent”. Further, the LD50 – broadly, the dose at which mortality reaches 50% – in the data set with rats or mice was 1244 mg/kg. Besides, the “activation of human PXR” value on human PXR [4] is given as 1.5 fold. Further, the “induction of CYP3A4 mRNA” value in the data set with CYP3A4 [1] was “relatively weaker inducers; also recorded: least induction”.
`CC(C)[C@H](C(=O)O[C@H](C#N)c1cccc(Oc2ccccc2)c1)c1ccc(Cl)cc1` [Esfenvalerate]: in the data set on CYP3A4 [6] (HepG2 cells, 0–10 µM), the “concentration dependence of CYP3A4 mRNA induction” value is reported as “concentration-dependent manner” and the “lowest concentration with significant induction of CYP3A4 mRNA” value was found to be 0.5 µM. In addition, the “induction of CYP3A4 mRNA in HepG2” value with CYP3A4 [6] (HepG2 cells, 1 µM) was “significant induction”. Moreover, the “induction of CYP3A4 mRNA in Hop92” value in the data set with CYP3A4 [6] (Hop92 cells, 1 µM) is given as “significant induction”. In the data set on CYP3A4 [6] (LS180 cells, 1 µM), the “induction of CYP3A4 mRNA in LS180” value is given as “significant induction”. Besides, the “preference … over HCE2 (words)” value at carboxylesterase HCE1 was “HCE1 preferably hydrolyzed”. Besides, the “hydrolysis … (rate group / extent, in words)” value in data set [3] is “low rate”. The LD50 with rats or mice is listed as 325 mg/kg. Further, the “activation of PXR variant L412I compared with wild-type PXR” value at human PXR variant L412I is “less extent than the wild-type PXR”. For the same compound, in the data set on CYP3A4 [1], the “induction of CYP3A4 mRNA” value is reported as at least 2.5 fold. Moreover, at human PXR variant S208F, the “activation of PXR variant S208F” value was “no differences”.
On to `CC1(C)[C@H](C=C(Cl)Cl)[C@H]1C(=O)OCc1cccc(Oc2ccccc2)c1` [Per-1, trans-permethrin], for which, on carboxylesterase HCE2, the “preference … over HCE1” value is “comparably hydrolyzed by both enzymes”. In addition, the “hydrolysis by HCE2 faster than by HCE1” value at carboxylesterase HCE2 (recombinant enzymes) worked out at 15%. Besides, the “hydrolysis … (rate group / extent, in words)” value in data set [3] is on record as “high rate”.
Turning to `CC1(C)[C@H](C(=O)OCc2cccc(Oc3ccccc3)c2)[C@@H]1C=C(Cl)Cl` [Per-2, cis-permethrin], the “hydrolysis by HCE2 relative to HCE1” value on carboxylesterase HCE2 (recombinant enzymes) is 7 times. Also, in data set [3], the “hydrolysis … (rate group / extent, in words)” value is listed as “low rate”.
As to `CC1(C)C(C=C(Cl)Cl)C1C(=O)OCc1cccc(Oc2ccccc2)c1` (stereo not drawn) [Permethrin], on rat PXR, the “activation of rat PXR” value is “efficaciously activated rat PXR”. The “preference … over HCE1” value at carboxylesterase HCE2 is given as “HCE2 preferably hydrolyzed”. The “activation of human PXR” value on human PXR [4] is “relatively weak activators of human PXR”.
For `CC(C)=CC1C(C(=O)OCN2C(=O)C3=C(CCCC3)C2=O)C1(C)C` (stereo not drawn) [Tetramethrin], the “extent of metabolism by CYP3A4” value in the data set with CYP3A4 [2] is on record as “greatest extent”. Further, the “preference … over HCE1” value on carboxylesterase HCE2 is on record as “HCE2 preferably hydrolyzed; also recorded: slightly more active than HCE1”. Further, the “lowest concentration causing significant activation of PXR, HCE1” value at human PXR [7] (HCE1 co-transfected cells, 0.5-10 µM) was 5 µM. Also, at human PXR [7] (HCE2-cotransfected cells, 0.5-10 µM), the “lowest concentration causing significant activation of PXR, HCE2” value is above 10 µM. In addition, the “lowest concentration causing significant activation of PXR, vector” value on human PXR [7] (cells cotransfected by the vector, 0.5-10 µM) was 1 µM. The “effect of carboxylesterase cotransfection on PXR activation” value on human PXR [7] (hPXR-HRE cells transfected with HCE1 or HCE2 vs vector, 10 µM) is on record as “markedly decreased”. For the same compound, the “decrease in PXR activation, HCE1 versus HCE2 cotransfection” value on human PXR [7] (hPXR-HRE cells, 10 µM) is “decreased more PXR activation than HCE1”. Besides, in data set [3] (pooled human liver microsomes), the “hydrolysis rate relative to tau-fluvalinate” value is 9 times. Further, in the data set on CYP3A4 [1], the “CYP3A4 protein (Western blotting)” value was “slight increase” and the “induction of CYP3A4 mRNA” value is listed as “relatively weaker inducers; also recorded: minimal induction; also recorded: least induction; also recorded: weakest CYP3A4 inducer”.
Take `CC(C)[C@@H](Nc1ccc(C(F)(F)F)cc1Cl)C(=O)OC(C#N)c1cccc(Oc2ccccc2)c1` (stereo partly drawn) [tau-Fluvalinate]: the “extent of metabolism by CYP3A4” value in the data set with CYP3A4 [2] is reported as “least extent”. Further, the “preference … over HCE1” value at carboxylesterase HCE2 is on record as “HCE2 preferably hydrolyzed”. Besides, the “hydrolysis … (rate group / extent, in words)” value in data set [3] is “low rate”. The “activation of human PXR” value on human PXR [4] was determined as 3.5 fold.
